Data: the NIST ThermoML archive (doi:10.1016/j.jct.2011.02.011)
Where “and” joins values, the source holds several entries; their conditions need not be identical. Equal entries are not always repeated. Numbers after ± are expanded uncertainties.

Conditions: Crystal, Calculated from knudsen effusion weight loss

[O-][n+]1ccccc1-c1ccccn1 [2,2'-bipyridyl N-oxide]
Conditions | vapor or sublimation pressure
319.17 K | 5.02e-05 ± 2.5e-06 kPa and 4.83e-05 ± 2.4e-06 kPa and 4.82e-05 ± 2.4e-06 kPa
321.15 K | 6.32e-05 ± 3.2e-06 kPa and 6.13e-05 ± 3.1e-06 kPa
323.16 K | 7.8e-05 ± 3.9e-06 kPa and 8.26e-05 ± 4.1e-06 kPa and 7.96e-05 ± 4e-06 kPa
325.15 K | 0.0001 ± 5e-06 kPa and 9.94e-05 ± 5e-06 kPa and 0.000102 ± 5e-06 kPa
327.14 K | 0.000126 ± 6e-06 kPa and 0.000128 ± 6e-06 kPa and 0.000127 ± 6e-06 kPa
329.16 K | 0.000163 ± 8e-06 kPa and 0.000161 ± 8e-06 kPa and 0.000162 ± 8e-06 kPa
331.13 K | 0.000201 ± 1e-05 kPa and 0.000198 ± 1e-05 kPa and 0.0002 ± 1e-05 kPa
